Measured values taken from patent publication US20250325517A1, “ORAL DOSAGE FORMS OF ELRAGLUSIB” (Actuate Therapeutics, Inc., priority 2022, published 2025).
Values after ≈ are worked out from the molar mass of the structure shown.

What was measured:
[1] = Elra:PVAP and Elra:CAP ASD stability study (XRPD, mDSC, TGA, HPLC, ssNMR); assay type: physicochemical; conditions: crystallinity marker peak of API
Description: Both ASDs stored remained amorphous up to 12 weeks storage under the above-mentioned conditions (FIG. 21). The mDSC of the stability samples was carried out in a hermetically sealed pan without any pin hole, to determine the Tg in the presence of residual solvent or moisture (i.e., wet Tg).
An HPLC chromatogram was also obtained using HPLC monitored at 210 nm for a sample stored for 12 weeks at different conditions.
The first derivative was applied to the stability sample spectra (FIGS. 25-29). For pure amorphous samples, ssNMR produces gaussian curves that when applied to first derivative become a flat baseline. Crystalline material produces Laplacian curves by ssNMR which can be clearly observed after applying the first derivative.
Signal to noise ratio of API reference was 8.18. In all four stability samples, the signal to noise ratio for the first derivative peak at 87 ppm remained <2.
Solid-state NMR experiments were performed on a 2 channel Bruker NEO spectrometer (Bruker, Billerica, MA) operating at 100.52 MHz for 13C and 399.71 MHz for 1H. A Chemagnetics APEX probe, refitted with a 7 mm magic angle spinning module (Revolution NMR, Fort Collins, CO) was used to acquire the data. Each sample was packed into a 7 mm zirconia rotor with Kel-F spacers. The magic angle spinning (MAS) frequency that was used to acquire all of the data was 5 kHz. […]

in vivo = assay: in vivo; set-up: species or system Beagle dogs; conditions: male, Beagle, dog; for AUC(0-inf): AUCINF; for AUC(0-t): AUClast
Description: The objective of this study was to evaluate the pharmacokinetic profile of elraglusib following single oral and intravenous doses in Beagle dogs.
The test article (elraglusib in a vehicle of 85% PEG400, 10% ethanol, 5% water (all components are weight/weight/weight)) was administered orally and via intravenous infusion to dogs according to the tables below.
Male Beagle dogs were selected for use in this study. Animals were at least 6 months old and males weighed approximately 9.3-10.8 kilograms at the start of dosing.
The study animals received a single oral dose of elraglusib followed by an approximate 7-day washout period after which they received a single intravenous infusion of elraglusib. Animals underwent standard evaluations such as body weight and clinical observations, and were bled for pharmacokinetics following each dose.
Plasma concentrations of elraglusib were determined for dogs treated with 20 mg/kg elraglusib via oral administration on Day 1 and then again via intravenous infusion on Day 8. […] Individual plasma concentrations were highest approximately 2-8 hours after oral administration (1,410-1,880 ng/mL), and highest at approximately 5 minutes following intravenous administration (11,800-13,600 ng/mL).

[2] = Photo-Chamber Study 1 (10FV, 50FV, 50V7; visible and UV light); assay type: physicochemical
Text: The photo-chamber and ambient light studies used a RP-HPLC method to monitor the following: • elraglusib concentration and % LC • elraglusib main peak Area % • elraglusib RelS1, elraglusib RelS2, and elraglusib Anhydride peak Area % values.
The three solutions were maintained in both 5-mL glass serum vials and UV-transparent plastic cuvettes (each with and without foil overwrap) and exposed to fractions (approximately 0, 25, 50, 75, and 100%) of ICH Q1B photostability conditions (1200 klux-hr in the visible region and 200 watt-h/m^2 in the UV region) using a calibrated photo-chamber.

[3] = Solubility of elraglusib in simulated intestinal fluid; assay type: physicochemical
Description: Solubility of elraglusib in simulated intestinal fluid with varying levels of SIF powder was measured to support formulation development, facilitate interpretation of in vitro dissolution, and support potential modeling and interpretation of in vivo pharmacokinetic data. The obtained solubility data are shown in Table 6-19 and is generally aligned with data previously collected for elraglusib.

- ssNMR Signal to Noise (87-96 ppm), first derivative spectra [1]: 8.18
- bioavailability (in vivo): 31%
- AUClast, IV versus PO (in vivo; 20 mg/kg): approximately 3 fold
- AUC (in vivo; iv, 20 mg/kg): 68.9 µg·h/mL
- highest individual plasma concentrations (in vivo; iv, 20 mg/kg): 11,800-13,600 ng/mL
- time of highest individual plasma concentrations (in vivo; iv, 20 mg/kg): approximately 5 minutes
- AUC(0-inf) (in vivo; iv, 20 mg/kg): 72.8 µg·h/mL
- AUC(0-t) (in vivo; iv, 20 mg/kg): 68.9 µg·h/mL
- Cmax (in vivo; iv, 20 mg/kg): 12.8 µg/mL
- Tmax (in vivo; iv, 20 mg/kg, Tmax): 4.98 min
- half-life (in vivo; iv, 20 mg/kg, t1/2): 6.05 h
- AUC (in vivo; po, 20 mg/kg): 21.3 µg·h/mL
- highest individual plasma concentrations (in vivo; po, 20 mg/kg): 1,410-1,880 ng/mL
- time of highest individual plasma concentrations (in vivo; po, 20 mg/kg): 2 to 8 h
- AUC(0-inf) (in vivo; po, 20 mg/kg): 22.6 µg·h/mL
- AUC(0-t) (in vivo; po, 20 mg/kg): 21.3 µg·h/mL
- Cmax (in vivo; po, 20 mg/kg): 1.67 µg/mL
- photo-conversion rate, visible light compared with UV light ([2]; vials and cuvettes): approximately 5 times
- % LC photo-conversion rate in vials (no foil) as % of rate in cuvettes (no foil) ([2]; visible light): approximately 60%
- Average Concentration, 2 hour ([3]; 0.01N HCl, initial pH 2, [NaTC] 0 mM, 2 hour): 2.1 µg/mL
- Average Concentration, 24 hour ([3]; 0.01N HCl, initial pH 2, [NaTC] 0 mM): 1.4 µg/mL
- Average Concentration, 2 hour ([3]; 0.5% Simulated Intestinal Fluid (SIF), initial pH 6.5, [NaTC] 6.7 mM, 2 hour): 6.0 µg/mL
- Average Concentration, 24 hour ([3]; 0.5% Simulated Intestinal Fluid (SIF), initial pH 6.5, [NaTC] 6.7 mM): 4.7 µg/mL
- Average Concentration, 2 hour ([3]; 2% SIF, initial pH 6.5, [NaTC] 26.8 mM, 2 hour): 17.0 µg/mL
- Average Concentration, 24 hour ([3]; 2% SIF, initial pH 6.5, [NaTC] 26.8 mM): 17.3 µg/mL
- Average Concentration, 2 hour ([3]; Blank FaSSIF, initial pH 6.5, [NaTC] 0 mM, 2 hour): 2.5 µg/mL
- Average Concentration, 24 hour ([3]; Blank FaSSIF, initial pH 6.5, [NaTC] 0 mM): 2.6 µg/mL
- Average Concentration, 2 hour ([3]; Blank FeSSIF, initial pH 5, [NaTC] 0 mM, 2 hour): 2.4 µg/mL
- Average Concentration, 24 hour ([3]; Blank FeSSIF, initial pH 5, [NaTC] 0 mM): 2.6 µg/mL
- Average Concentration, 24 hour ([3]; FaSSIF, initial pH 6.5, [NaTC] 3 mM): 5.7 µg/mL
- solubility ([3]; FaSSIF, pH 6.5, fassif, thermodynamic from solid, read-out: measured solubility of crystalline elraglusib): 5.7 µg/mL (≈ 14.1 µM)
- Average Concentration, 2 hour ([3]; FeSSIF, initial pH 5, [NaTC] 15 mM, 2 hour): 8.4 µg/mL
- Average Concentration, 24 hour ([3]; FeSSIF, initial pH 5, [NaTC] 15 mM): 11.6 µg/mL
- pH dependence of equilibrium solubility ([3]; simulated intestinal fluid): essentially independent of pH
- solubility thermodynamic at 2 h ([3]; thermodynamic from solid, FaSSIF, initial pH 6.5, [NaTC] 3 mM, 2 hour, read-out: Average Concentration, 2 hour): 5.2 µg/mL (≈ 12.9 µM)
SMILES: Cn1cc(C2=C(c3coc4ccc(F)cc34)C(=O)NC2=O)c2cc3c(cc21)OCO3 [elraglusib, 3-(5-fluorobenzofuran-3-yl)-4-(5-methyl-5H-[1,3]dioxolo[4,5-f]indol-7-yl)-1H-pyrrole-2,5-dione]
- % LC loss rate relative to main peak Area % loss rate ([2]; photo-exposure): approximately 6 times
